Measurements from patent US8541373B2, “BChE albumin fusions for the treatment of cocaine abuse” (priority 2009, dated 2013).
Values joined by “and” are separate entries in the source; they are usually repeats but may differ in a detail not shown here. Identical values can stand only once.

What was measured:
[1] = tested on: cocaine self-administration; assay: Cocaine self-administration; format: in vivo, squirrel monkeys (Saimiri sciureus)
Source text: Adult male squirrel monkeys (Saimiri sciureus) weighing 0.8 to 1.2 kg were used as subjects. All monkeys were individually housed in a humidity and temperature controlled room and had free access to water. The monkeys were fed following any experimental procedures an amount of food (Lab Diet 5045, PMI Nutrition International, Richmond, Ind.; Banana Softies, Bio-Serv, Frenchtown, N.J.) determined to maintain a stable weight. Fresh fruit, vegetables and environmental enrichment were also provided daily. The animal care facilities were fully accredited by AAALAC and all experiments were approved by the NIDA Intramural Research Program Animal Care and Use Committee.
Three monkeys were trained to self-administer 30 μg/kg/inj i.v. cocaine. Details of the self-administration training procedure can be found elsewhere (Justinova et al., 2003). In brief, the monkeys were placed in a seated position in a Plexiglas restraint chair. The chair was enclosed in a larger acoustical chamber. On the front wall of the restraint chair there was a response lever and stimulus lights. A green light signaled the beginning of the session. The monkeys were trained to make 10 responses (fixed-ratio, FR, 10) to receive an i.v. injection of cocaine. The injection of cocaine was accompanied by the green light, turning off and a yellow stimulus light being presented for 2 sec. Following each cocaine injection there was also a 60-sec timeout. At the end of the timeout, the green light was turned on. Sessions lasted for 1 hour. Occasionally, saline was substituted for cocaine. Following the establishment of stable cocaine self-administration and reliable extinction of responding following saline substitution, AlbuBChE (5 mg/kg, i.m.) or its vehicle (i.m.) were given 2 hours prior to a self-administration session. Self-administration responding was then measured for 5 consecutive days. Following each drug test or saline substitution, responding for 30 μg/kg/inj cocaine was reestablished for at least 5 days. Following reinstatement testing (see below), the dose of cocaine available for self-administration was lowered to 10 μg/kg/inj and the effect of AlbuBChE (5 mg/kg, i.m.) was again determined.
The blood level data were analyzed separately for each metabolite and time point (5 or 30 min). […] The self-administration data were analyzed separately for response rate or injections following either vehicle treatment or AlbuBChE treatment. Control data were included in the analysis by taking the average of the last 3 days for the immediately preceding baseline condition. A within subjects ANOVA was then performed with follow-up tests contrasting days following vehicle or AlbuBChE with the control. For the reinstatement tests, a two-way ANOVA was performed for both response rate and injections, with time post vehicle or AlbuBChE as the within-subjects factor and pretreatment (vehicle or AlbuBChE) as the between subjects factor. Follow-up contrast compared vehicle and AlbuBChE at each time point.

[2] = tested on: cocaine discriminative-stimulus effects; assay: Drug discrimination in methamphetamine-trained monkeys; format: in vivo, squirrel monkeys
cocaine = assay: Plasma cocaine, ecgonine methyl ester and benzoylecgonine after IV cocaine post-AlbuBChE; format: in vivo, Squirrel monkeys; conditions: for Benzoylecgonine Plasma Concentration, Mean / Cocaine Plasma Concentration, Mean / Ecgonine methyl ester plasma concentration (mean): mean n=3
Description: Blood was placed into K2EDTA blood collection tubes with esterase inhibitor (diisopropylfluorophosphate (DFP). Tubes were inverted several times and placed on wet ice upon collection. Samples were centrifuged at 2-8° C. within 45 minutes of collection. The resultant plasma will be recovered and a single 200 μL aliquot of plasma was placed into polypropylene tubes. Plasma samples was frozen over dry ice and stored at approximately −70° C.
The bioanalytical method measured the plasma concentration of cocaine and two of its metabolites: ecgonine methyl ester and benzoylecgonine. Cocaine metabolic pathway is shown in FIG. 9, ecgonine methyl ester metabolite is formed directly from cocaine through the butrylcholine esterase enzyme. As such, this metabolite can be predicted to increase following AlbuBChE administration.
The blood level data were analyzed separately for each metabolite and time point (5 or 30 min). A one-way analysis-of-variance (ANOVA) was performed with follow-up Dunnett tests using the results of monkeys treated with vehicle as the control. The self-administration data were analyzed separately for response rate or injections following either vehicle treatment or AlbuBChE treatment. Control data were included in the analysis by taking the average of the last 3 days for the immediately preceding baseline condition. A within subjects ANOVA was then performed with follow-up tests contrasting days following vehicle or AlbuBChE with the control. For the reinstatement tests, a two-way ANOVA was performed for both response rate and injections, with time post vehicle or AlbuBChE as the within-subjects factor and pretreatment (vehicle or AlbuBChE) as the between subjects factor. Follow-up contrast compared vehicle and AlbuBChE at each time point.

[3] = 5 mg/kg i.m., 30 μg/kg/inj cocaine, tracked 5 days
[4] = 5 min after cocaine 1 mg/kg IV given 2 hr post-AlbuBChE 5 mg/kg IM, individual monkeys 547, 3434, 53B
[5] = 5 min after cocaine 1 mg/kg IV given 72 hr post-AlbuBChE 5 mg/kg IM, individual monkeys
[6] = 5 min after cocaine 1 mg/kg IV given 96 hr post-AlbuBChE 5 mg/kg IM, individual monkeys
[7] = 5 min after cocaine 1 mg/kg IV, 2 hr post-AlbuBChE 5 mg/kg IM
[8] = 5 min after cocaine 1 mg/kg IV, 72 hr post-AlbuBChE 5 mg/kg IM
[9] = 5 min after cocaine 1 mg/kg IV, 96 hr post-AlbuBChE 5 mg/kg IM
[10] = 30 min after cocaine 1 mg/kg IV given 2 hr post-AlbuBChE 5 mg/kg IM, individual monkeys
[11] = 30 min after cocaine 1 mg/kg IV given 72 hr post-AlbuBChE 5 mg/kg IM, individual monkeys
[12] = 30 min after cocaine 1 mg/kg IV given 96 hr post-AlbuBChE 5 mg/kg IM, individual monkeys
[13] = 30 min after cocaine 1 mg/kg IV, 2 hr post-AlbuBChE 5 mg/kg IM
[14] = 30 min after cocaine 1 mg/kg IV, 72 hr post-AlbuBChE 5 mg/kg IM
[15] = 30 min after cocaine 1 mg/kg IV, 96 hr post-AlbuBChE 5 mg/kg IM

Substance: AlbuBChE
- Duration of effect on cocaine self-administration ([1]; 30 μg/kg/inj cocaine, reduced effectiveness): ≥ 3 days
- Cocaine self-administration ([1]; 5 mg/kg i.m., 30 μg/kg/inj cocaine): reduced self-administration
- Self-administration injections vs baseline [1, 3]: significantly different from control on day 1 and 4
- Self-administration response rate vs baseline [1, 3]: different from control on days 1-4
- Self-administration response rate and injections ([1]; 5 mg/kg, 10 μg/kg/inj cocaine, 2 hrs following AlbuBChE): failed to reach significance
- Generalization of cocaine to the methamphetamine cue ([2]; 5 mg/kg 2 hrs prior, 0.3 mg/kg cocaine): failed to generalize
- Substitution of cocaine for methamphetamine ([2]; 5 mg/kg 2 hrs prior, 1.0 mg/kg cocaine): approximately 70%
- Generalization of cocaine to the methamphetamine cue ([2]; 24 hrs following AlbuBChE, 0.3 mg/kg cocaine): approximately 70%
- Generalization of cocaine to the methamphetamine cue ([2]; 24 hrs following AlbuBChE, 1.0 mg/kg cocaine): fully generalized
- Generalization of cocaine to the methamphetamine cue ([2]; 48 hrs following AlbuBChE, 0.3 mg/kg cocaine): fully generalized
- Generalization of methamphetamine to the methamphetamine cue ([2]; AlbuBChE 2 hrs prior to methamphetamine dose-effect function): did not affect generalization
- Rate of responding in discrimination study ([2]; cocaine or methamphetamine treatment condition): did not affect the rate of responding
- Ecgonine methyl ester concentration increase over control (cocaine; 5 mg/kg IM, 2 hr post-AlbuBChE, 5 min after cocaine): ~40 fold
- Cocaine concentration relative to control (cocaine; 5 mg/kg IM, cocaine 1 mg/kg IV 96 hr post-AlbuBChE): 60 % of control
- Benzoylecgonine Plasma Concentration (cocaine; [4]): 4.83 ng/mL and 23.3 ng/mL and 20.1 ng/mL
- Cocaine Plasma Concentration (cocaine; [4]): 0.575 ng/mL and 20.0 ng/mL and 22.4 ng/mL
- Ecgonine Methyl Ester Plasma Concentration (cocaine; [4]): 109 ng/mL and 417 ng/mL and 333 ng/mL
- Benzoylecgonine Plasma Concentration (cocaine; [5]): 9.93 ng/mL and 41.7 ng/mL and 28.8 ng/mL
- Cocaine Plasma Concentration (cocaine; [5]): 41.3 ng/mL and 176 ng/mL and 104 ng/mL
- Ecgonine Methyl Ester Plasma Concentration (cocaine; [5]): 29.3 ng/mL and 101 ng/mL and 73.2 ng/mL
- Benzoylecgonine Plasma Concentration (cocaine; [6]): 15.5 ng/mL and 36.2 ng/mL and 26.3 ng/mL
- Cocaine Plasma Concentration (cocaine; [6]): 97.9 ng/mL and 191 ng/mL and 112 ng/mL
- Ecgonine Methyl Ester Plasma Concentration (cocaine; [6]): 40.5 ng/mL and 72.3 ng/mL and 35.8 ng/mL
- Benzoylecgonine Plasma Concentration, Mean (cocaine; [7]): 16.1 ng/mL
- Cocaine Plasma Concentration, Mean (cocaine; [7]): 14.3 ng/mL
- Ecgonine methyl ester plasma concentration (mean) (cocaine; [7]): 286 ng/mL
- Benzoylecgonine Plasma Concentration, Mean (cocaine; [8]): 26.8 ng/mL
- Cocaine Plasma Concentration, Mean (cocaine; [8]): 107 ng/mL
- Ecgonine methyl ester plasma concentration (mean) (cocaine; [8]): 67.8 ng/mL
- Benzoylecgonine Plasma Concentration, Mean (cocaine; [9]): 26.0 ng/mL
- Cocaine Plasma Concentration, Mean (cocaine; [9]): 134 ng/mL
- Ecgonine methyl ester plasma concentration (mean) (cocaine; [9]): 49.5 ng/mL
- Benzoylecgonine Plasma Concentration (cocaine; [10]): 11.1 ng/mL and 20.8 ng/mL and 10.9 ng/mL
- Cocaine Plasma Concentration (cocaine; [10]): 0.581 ng/mL and 0.115 ng/mL and 0.261 ng/mL
- Ecgonine Methyl Ester Plasma Concentration (cocaine; [10]): 252 ng/mL and 314 ng/mL and 218 ng/mL
- Benzoylecgonine Plasma Concentration (cocaine; [11]): 20.7 ng/mL and 33.4 ng/mL and 21 ng/mL
- Cocaine Plasma Concentration (cocaine; [11]): 65.0 ng/mL and 57.9 ng/mL and 44.9 ng/mL
- Ecgonine Methyl Ester Plasma Concentration (cocaine; [11]): 61.3 ng/mL and 112 ng/mL and 81.7 ng/mL
- Benzoylecgonine Plasma Concentration (cocaine; [12]): 18.9 ng/mL and 37.6 ng/mL and 21.5 ng/mL
- Cocaine Plasma Concentration (cocaine; [12]): 62.9 ng/mL and 75.6 ng/mL and 67.1 ng/mL
- Ecgonine Methyl Ester Plasma Concentration (cocaine; [12]): 25.7 ng/mL and 76.8 ng/mL and 45.2 ng/mL
- Benzoylecgonine Plasma Concentration, Mean (cocaine; [13]): 14.3 ng/mL
- Cocaine Plasma Concentration, Mean (cocaine; [13]): 0.319 ng/mL
- Ecgonine methyl ester plasma concentration (mean) (cocaine; [13]): 261 ng/mL
- Benzoylecgonine Plasma Concentration, Mean (cocaine; [14]): 25.0 ng/mL
- Cocaine Plasma Concentration, Mean (cocaine; [14]): 55.9 ng/mL
- Ecgonine methyl ester plasma concentration (mean) (cocaine; [14]): 85.0 ng/mL
- Benzoylecgonine Plasma Concentration, Mean (cocaine; [15]): 26.0 ng/mL
- Cocaine Plasma Concentration, Mean (cocaine; [15]): 68.5 ng/mL
- Ecgonine methyl ester plasma concentration (mean) (cocaine; [15]): 49.2 ng/mL
- Cocaine blood levels vs vehicle control (cocaine; 2 hours following AlbuBChE, 5- and 30-min time points): significantly reduced
- Blood levels of BZ vs vehicle control (cocaine; 2 hr following AlbuBChE): not significant
- Blood levels of EME vs vehicle control (cocaine; 2 hr following AlbuBChE, 5- and 30 min time point): elevated
- Cocaine blood levels vs vehicle control (cocaine; 72 hours following AlbuBChE, 30-min post cocaine): significantly below control levels
- Blood levels of EME vs vehicle control (cocaine; 72 hours following AlbuBChE, 30 min time point): significantly elevated
- Cocaine blood levels vs vehicle control (cocaine; 96 hours following AlbuBChE, 5 or 30 min time point): not significant
- Duration of decreased amount of cocaine in the blood (cocaine; Squirrel monkeys, 5 mg/kg): at least 72 hours
